Reference: patent US8293724B2, “Therapeutic applications of fatty acid amide hydrolase inhibitors” (The United States of America, as represented by the …, priority 2007, dated 2012)

Tests used:
[1] = biological target: CB1 cannabinoid receptor (Homo sapiens, UniProt P21554); assay: Affinity for the CB1 cannabinoid receptor; assay type: binding
[2] = test system: spontaneously hypertensive rat (SHR); assay: Hemodynamic measurements in anesthetized spontaneously hypertensive rats; assay type: in vivo
Procedure: Anandamide, the CB1 receptor antagonist AM251, and the anandamide transport inhibitors AM404 and OMDM-2 were obtained from Tocris; and the CB1 antagonist SR141716 and the CB2 antagonist SR144528 were from the National Institute on Drug Abuse drug supply program. Drugs were mixed in corn oil and sonicated for 5 minutes at 4° C. The mixture was added to 4 parts of Pluronic F68 (Sigma-Aldrich) solution (40 mg/mL) dissolved in water and sonicated to obtain a stable suspension for bolus intravenous injections.
Rats were obtained from Harlan (Indianapolis, Ind.). Male, 8- to 10-month-old SHR, age-matched male Wistar-Kyoto rats (WKY), and 8- to 10-week-old male Sprague-Dawley rats were maintained on standard rat chow and water ad libitum. Dahl salt-sensitive and salt-resistant rats (male, Rapp strain, 6 weeks old) were maintained for 4 weeks on rat chow containing either 0.12% or 8% NaCl. […] Hypertension was induced in Sprague-Dawley rats by chronic infusion of angiotensin II (60 ng/min) via an osmotic minipump (Imig et al. Hypertension 2002; 39: 690-694. Rats were used 10 to 12 days after implantation of the minipump.
For hemodynamic measurements, rats were anesthetized with pentobarbital sodium (60 mg/kg IP) and tracheotomized to facilitate breathing. Animals were placed on controlled heating pads, and core temperature, measured via a rectal probe, was maintained at 37° C. A microtip pressure-volume catheter (SPR-838; Millar Instruments) was inserted into the right carotid artery and advanced into the left ventricle (LV) under pressure control as described previously. Polyethylene cannulae (P50) were inserted into the right femoral artery and vein for measurement of mean arterial pressure (MAP) and administration of drugs, respectively. […] Heart rate, maximal LV systolic pressure, MAP, and maximal slope of systolic pressure increment (+dP/dt) were computed with a cardiac pressure-volume analysis program (PVAN2.9; Millar). Cardiac output calculated and corrected according to in vitro and in vivo volume calibrations with PVAN2.918 was normalized to body weight (cardiac index [CI]). Total peripheral resistance index (TPRI) was calculated by the equation TPRI=MAP/CI. In 3 experiments, drugs were microinjected into the fourth cerebral ventricle as described by Ramirez-Gonzalez et al. Circ Res. 1983; 53, 150-157.
Time-dependent variables were analyzed by ANOVA followed by the Dunnett post hoc test. In other cases, the Student t test was used, as appropriate. Values with P<0.05 were considered statistically significant.

[3] = test system: conscious SHR; assay: Blood pressure and heart rate in conscious SHR; assay type: in vivo, rat; settings: versus dosage
[4] = biological target: T1, FAAH (Rattus norvegicus, UniProt P97612); assay: Hepatic FAAH activity in SHR and WKY after i.p. treatment; assay type: in vivo; settings: AM3506 1 mg/kg, n=3-5
T1 construct: from tissue; host or cells: liver of SHR and WKY rats treated in vivo
T1 sequence (P97612 1-579): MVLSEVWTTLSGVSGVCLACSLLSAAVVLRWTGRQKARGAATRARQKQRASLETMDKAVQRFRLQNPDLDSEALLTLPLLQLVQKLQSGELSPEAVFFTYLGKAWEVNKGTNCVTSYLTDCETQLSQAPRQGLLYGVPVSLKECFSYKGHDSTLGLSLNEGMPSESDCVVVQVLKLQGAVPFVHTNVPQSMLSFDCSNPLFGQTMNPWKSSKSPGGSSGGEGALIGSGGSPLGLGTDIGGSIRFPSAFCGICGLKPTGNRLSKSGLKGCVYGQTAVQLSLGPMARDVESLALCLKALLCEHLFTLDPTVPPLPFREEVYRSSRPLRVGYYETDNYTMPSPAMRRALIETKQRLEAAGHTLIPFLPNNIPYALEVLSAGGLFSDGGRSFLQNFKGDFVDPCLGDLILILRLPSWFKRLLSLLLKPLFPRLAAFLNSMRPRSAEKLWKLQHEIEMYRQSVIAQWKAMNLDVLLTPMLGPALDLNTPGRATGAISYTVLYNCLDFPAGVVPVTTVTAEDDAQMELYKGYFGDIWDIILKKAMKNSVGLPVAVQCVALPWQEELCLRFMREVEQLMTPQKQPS

[5] = test system: male DIO mice (wild-type C57Bl6/J on high-fat diet); assay: Intraperitoneal glucose tolerance test in wild-type mice with diet-induced obesity; assay type: in vivo; settings: AM3506 1 mg/kg i.p., 60 min before glucose 1.5 g/kg i.p., 1 mg/kg
Procedure: Male C57Bl6/J mice, wild-type or liver-specific CB1 receptor knockout, were kept on a diet containing 60% of calories as fat (Research Diets Inc) for 14 weeks, by which time both strains have become fat due to increased adipose mass. […] Sixty minutes later the mice received 1.5 g/kg glucose i.p. and blood glucose levels were monitored for 2 hours.

[6] = test system: anandamide transporter; assay: Inhibition of the anandamide transporter (anandamide uptake); assay type: cell-based; settings: concentrations of up to 20 μM
[7] = AM3506 bolus 1 mg/kg, anesthetized SHR, FIG. 7

Sequence of CB1 cannabinoid receptor (P21554 whole entry): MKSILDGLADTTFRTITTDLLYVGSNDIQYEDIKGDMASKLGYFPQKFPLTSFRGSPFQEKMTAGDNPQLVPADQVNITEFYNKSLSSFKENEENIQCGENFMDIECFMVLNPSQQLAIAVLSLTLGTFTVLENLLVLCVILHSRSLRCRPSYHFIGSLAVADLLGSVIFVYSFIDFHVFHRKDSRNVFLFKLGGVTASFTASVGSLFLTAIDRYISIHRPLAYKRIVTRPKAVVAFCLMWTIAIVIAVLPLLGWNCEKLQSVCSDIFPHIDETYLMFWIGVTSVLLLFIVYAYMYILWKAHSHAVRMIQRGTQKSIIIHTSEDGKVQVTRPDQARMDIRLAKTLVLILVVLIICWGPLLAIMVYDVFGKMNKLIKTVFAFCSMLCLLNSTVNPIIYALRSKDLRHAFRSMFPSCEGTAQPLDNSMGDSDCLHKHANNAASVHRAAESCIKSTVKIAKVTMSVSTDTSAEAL

With `O=S(=O)(F)CCCCCc1ccc(O)cc1` [AM3506] the Ki [1] was 192 nM, the “lowering of blood pressure” value ([2]; AM3506 0.3 mg/kg i.v., SHR) was 90 mmHg and the “dose equivalence in producing hypotension” value ([2]; AM3506 1 mg/kg versus URB597 10 mg/kg) was “equieffective with 10 mg/kg URB597”. For the same molecule, the cardiac contractility [2, 7] was “significantly decreases”, the cardiac output [2, 7] was “reduced” and the “left ventricular end systolic pressure (LVESP)” value [2, 7] was “decreases”. The “maximal slope of the systolic pressure increment (dP/dt)” value [2, 7] was “decrease”, the stroke volume [2, 7] was “reduced” and the blood pressure effect ([2]; AM3506 intravenously 1 mg/kg in 50 μl, anesthetized SHR, FIG. 1) was “hypotensive effect”. For the same molecule, the MBP ([3]; n=4, FIG. 4A) was “decrease MBP”, the heart rate ([3]; n=4, FIG. 5A) was “moderate bradycardia only at 1 mg/kg dose” and the “reduction of hepatic FAAH activity” value ([4]; SHR) was 11.1±0.04%. For the same molecule, the “reduction of hepatic FAAH activity” value ([4]; WKY) was 6.7±0.2%, the glucose intolerance [5] was “had no such effect” and the “inhibition of the anandamide transporter” value [6] was “did not inhibit”.
